Measured values taken from US10544085B2, “Oils having antibacterial activity” (The United States of America, as Represented by the …, priority 2014, dated 2020).
Converted amounts (≈) assume the structure as drawn.

Experiments:
[1] = tested on: Streptococcus epidermis; settings: cited from earlier work
[2] = tested on: E. faecalis; settings: cited from earlier work
[3] = tested on: Enterococcus faecium; settings: cited from earlier work
[4] = tested on: three strains of Staphylococcus aureus; settings: cited from earlier work
[5] = tested on: Streptococcus agalactiae; test: MIC, broth microdilution; format: cell-based; settings: HPLC fractions, serial two-fold dilutions approximately 128 μg/ml to approximately 2 μg/ml
Description: The eight bacterial strains listed in Table 1 are used in the antibacterial activity assays. Streptococcus agalactiae and S. uberis (gifts from D. Donovan, ARS, USDA, Beltsville, Md.), Lactobacillus fermentum laboratory strain number 0315-1 (Bischoff, et al., Biotechnology and Bioengineering 103:117-122 (2009)), Enterococcus faecalis (ATCC Accession Number 29212), Bacillus subtilis MW10 (Bacillus Genetic Stock Center Accession Number 1A751), Staphylococcus aureus (ATCC Accession Number 29213), Escherichia coli (ATCC Accession Number 25922), and Pseudomonas aeruginosa (ATCC Accession Number 27853) are obtained from the indicated source. S. uberis, S. agalactiae, S. aureus, E. coli, and P. aeruginosa are cultured in tryptic soy broth (TSB) at 37° C. TSB contains the following: peptone from casein 17.0 g/L; peptone from soymeal 3.0 g/L; D(+)glucose 2.5 g/L; sodium chloride 5.0 g/L; and di-potassium hydrogen phosphate 2.5 g/L. E. faecalis are cultured in Bacto Brain Heart Infusion broth (BHI) (Becton Dickenson, Franklin Lakes, N.J.) at 37° C. L. fermentum are cultured in MRS broth at 37° C. MRS broth contains the following: peptone from casein 10.0 g/L; meat extract 8.0 g/L; yeast extract 4.0 g/L; D(+)-glucose 20.0 g/L; di-potassium hydrogen phosphate 2.0 g/L; Tween® 80 1.0 g/L; di-ammonium hydrogen citrate 2.0 g/L; sodium acetate 5.0 g/L; magnesium sulfate 0.2 g/L; and manganese sulfate 0.04 g/L. […]
Fractions 5-14 that were obtained from the HPLC fractionation (above) are assayed for antibacterial activity against S. agalactiae by the broth dilution method with serial two-fold dilutions of each component ranging from approximately 128 μg/ml to approximately 2 μg/ml. Fraction 12, containing mannitol-liamocin B1 had the lowest minimum inhibitory concentration (i.e. highest antibacterial activity) of the fractions.

[6] = tested on: S. agalactiae; test: Disc diffusion assay of HPLC fractions; format: cell-based, Streptococcus agalactiae; settings: 5 mg/ml, 10 μl per 6 mm disc, 37° C. overnight
Description: Antibacterial activity for each fraction of the HPLC is measured qualitatively by disc diffusion assay. S. agalactiae at a density of 0.5 McFarland units are diluted 1:100 in PBS, and 20 μl are evenly spread on TSB agar media. Paper discs (6 mm diameter) are placed on surface. HPLC fractionated oils are dissolved to a concentration of 5 mg/ml in solvent (1:1 dimethylsulfoxide:2-butanone), and samples (10 μl) are applied to each disc. Plates are incubated at 37° C. overnight, and scored for a growth inhibition zone surrounding the disc, which indicates antibacterial activity. 5 mg/ml of purified oil is used as positive control, and acetonitrile solvent for HPLC is used as negative control.

For `CCCCC[C@@H](O)C[C@@H](O)CC(=O)O[C@H](CCCCC)C[C@@H](O)CC(=O)O[C@H](CCCCC)C[C@@H](O)CC(=O)O` [Exophilin A], which MIC [1] is on record?
Its MIC is > 100 µg/mL.

What about the MIC [2] of the same compound?
Its MIC is 25 µg/mL (≈ 43.3 µM).

And the MIC [3]?
Its MIC is 12.5 µg/mL (≈ 21.7 µM).

What about the MIC [4] of the same compound?
The MIC was 50 µg/mL (≈ 86.7 µM).

For mannitol-liamocin A1 [Fraction 7], which “Minimum Inhibitory Concentration” value ([5]; listed as 7) is on record?
Its value is >128 µg/mL.

With mannitol-liamocin A1 [Fraction 8] as the compound, how does the “Minimum Inhibitory Concentration” value ([5]; listed as 8) read?
The value was 64 µg/mL.

And the “growth inhibition zone surrounding the disc (antibacterial activity, qualitative)” value [6]?
Its value is “exhibit bactericidal activity”.

What does the source list for mannitol-liamocin A2 [Fraction 9]?
Minimum Inhibitory Concentration ([5]; listed as 9): 128 µg/mL; growth inhibition zone surrounding the disc (antibacterial activity, qualitative) [6]: exhibit bactericidal activity

With mannitol-liamocin A2 [Fraction 10] as the compound, how does the “Minimum Inhibitory Concentration” value ([5]; listed as 10) read?
The value was 64 µg/mL.

Which results are given for mannitol-liamocin B1 [Fraction 11]?
Minimum Inhibitory Concentration ([5]; listed as 11): 64 µg/mL; growth inhibition zone surrounding the disc (antibacterial activity, qualitative) [6]: exhibit bactericidal activity

For mannitol-liamocin B1 [Fraction 12], which “Minimum Inhibitory Concentration” value ([5]; listed as 12) is on record?
Its value is 16 µg/mL.

With mannitol-liamocin B2 [Fraction 13] as the compound, how does the “Minimum Inhibitory Concentration” value [5] read?
The value was 128 µg/mL.

What about the “growth inhibition zone surrounding the disc (antibacterial activity, qualitative)” value [6] of the same compound?
The value was “exhibit bactericidal activity”.
